Key:
[1] = (§1) The drug is tested on WLS-220 corresponding to human gut metagenome with ENA study accession number: PRJEB37062 and ENA sample accession number: ERS12561769 for biotransformation under anaerobic condition. The drug concentrations were measured over 9 timepoints collected between 0 and 24 hours of incubation by liquid-chromatography-coupled mass spectrometry (LC–MS); settings: 2 µM
[2] = as §1, with “WLS-370” for “WLS-220”, “ERS12561793” for “ERS12561769”; settings: 2 µM
[3] = human gut metagenome, 24 h, 2 µM
[4] = as §1, with “WLS-039” for “WLS-220”, “ERS12561746” for “ERS12561769”; settings: 2 µM
[5] = as §1, with “WLS-073” for “WLS-220”, “ERS12561749” for “ERS12561769”; settings: 2 µM
[6] = human gut metagenome, 24 h, 2 µM; remark: listed apart in the source
[7] = as §1, with “WLS-310” for “WLS-220”, “ERS12561785” for “ERS12561769”; settings: 2 µM
[8] = human gut metagenome, 24 h, 2 µM; remark: listed apart in the source
[9] = as §1, with “WLS-038” for “WLS-220”, “ERS12561745” for “ERS12561769”; settings: 2 µM
[10] = as §1, with “WLS-090” for “WLS-220”, “ERS12561753” for “ERS12561769”; settings: 2 µM
[11] = human gut metagenome, 24 h, 2 µM; remark: listed apart in the source
[12] = as §1, with “Z-018” for “WLS-220”, “pig” for “human”, “ERS12561817” for “ERS12561769”; settings: 2 µM
[13] = as §1, with “Z-003” for “WLS-220”, “pig” for “human”, “ERS12561803” for “ERS12561769”; settings: 2 µM
[14] = human gut metagenome, 24 h, 2 µM; remark: listed apart in the source
[15] = as §1, with “WLS-006” for “WLS-220”, “ERS12561741” for “ERS12561769”; settings: 2 µM
[16] = as §1, with “Z-006” for “WLS-220”, “mouse” for “human”, “ERS12561806” for “ERS12561769”; settings: 2 µM
[17] = human gut metagenome, 24 h, 2 µM; remark: listed apart in the source
[18] = as §1, with “Z-025” for “WLS-220”, “rabbit” for “human”, “ERS12561824” for “ERS12561769”; settings: 2 µM
[19] = human gut metagenome, 24 h, 2 µM; remark: listed apart in the source
[20] = as §1, with “WLS-240” for “WLS-220”, “ERS12561773” for “ERS12561769”; settings: 2 µM
Also: call rule not given here.

Compound | Bacterial Biotransformation [1] | Bacterial Biotransformation [2] | Bacterial Biotransformation [3] | Bacterial Biotransformation [4] | Bacterial Biotransformation [5] | Bacterial Biotransformation [6] | Bacterial Biotransformation [7] | Bacterial Biotransformation [8] | Bacterial Biotransformation [9] | Bacterial Biotransformation [10] | Bacterial Biotransformation [11] | Bacterial Biotransformation [12] | Bacterial Biotransformation [13] | Bacterial Biotransformation [14] | Bacterial Biotransformation [15] | Bacterial Biotransformation [16] | Bacterial Biotransformation [17] | Bacterial Biotransformation [18] | Bacterial Biotransformation [19] | Bacterial Biotransformation [20]
O=C(CCCN1CCC(O)(c2ccc(Cl)cc2)CC1)c1ccc(F)cc1 [HALOPERIDOL] | Compound metabolized | Compound NOT metabolized | Compound metabolized | Compound metabolized | Compound NOT metabolized | Compound metabolized | Compound metabolized | Compound NOT metabolized | Compound NOT metabolized | Compound metabolized | Compound NOT metabolized | Compound NOT metabolized | Compound metabolized | Compound NOT metabolized | Compound metabolized | Compound NOT metabolized | Compound NOT metabolized | Compound NOT metabolized | Compound NOT metabolized | Compound metabolized
CCCCC1=NC2(CCCC2)C(=O)N1Cc1ccc(-c2ccccc2-c2nnn[nH]2)cc1 [IRBESARTAN] | Compound metabolized | Compound metabolized | Compound metabolized | Compound metabolized | Compound metabolized | Compound metabolized | Compound metabolized | Compound NOT metabolized | Compound metabolized | Compound metabolized | Compound metabolized | Compound metabolized | Compound metabolized | Compound metabolized | Compound metabolized | Compound metabolized | Compound metabolized | Compound NOT metabolized | Compound metabolized | Compound metabolized
NC(CO)(CO)CO.O=C(c1ccccc1)c1ccc2n1CCC2C(=O)O (stereo not given) [KETOROLAC TROMETHAMINE] | Compound metabolized | Compound metabolized | Compound metabolized | Compound metabolized | Compound metabolized | Compound metabolized | Compound metabolized | Compound NOT metabolized | Compound metabolized | Compound metabolized | Compound metabolized | Compound NOT metabolized | Compound metabolized | Compound metabolized | Compound metabolized | Compound NOT metabolized | Compound metabolized | Compound NOT metabolized | Compound metabolized | Compound metabolized
CN1C(=O)CC(C)(c2ccccc2)C1=O (stereo not given) [METHSUXIMIDE] | Compound NOT metabolized | Compound NOT metabolized | Compound NOT metabolized | Compound NOT metabolized | Compound NOT metabolized | Compound NOT metabolized | Compound NOT metabolized | Compound NOT metabolized | Compound NOT metabolized | Compound NOT metabolized | Compound NOT metabolized | Compound NOT metabolized | Compound NOT metabolized | Compound metabolized | Compound NOT metabolized | Compound NOT metabolized | Compound NOT metabolized | Compound NOT metabolized | Compound NOT metabolized | Compound metabolized

Continued, values first:

Bacterial Biotransformation [1] | Bacterial Biotransformation [2] | Bacterial Biotransformation [3] | Bacterial Biotransformation [4] | Bacterial Biotransformation [5] | Bacterial Biotransformation [6] | Bacterial Biotransformation [7] | Bacterial Biotransformation [8] | Bacterial Biotransformation [9] | Bacterial Biotransformation [10] | Bacterial Biotransformation [11] | Bacterial Biotransformation [12] | Bacterial Biotransformation [13] | Bacterial Biotransformation [14] | Bacterial Biotransformation [15] | Bacterial Biotransformation [16] | Bacterial Biotransformation [17] | Bacterial Biotransformation [18] | Bacterial Biotransformation [19] | Bacterial Biotransformation [20] | Compound
Compound NOT metabolized | Compound NOT metabolized | Compound NOT metabolized | Compound NOT metabolized | Compound metabolized | Compound metabolized | Compound metabolized | Compound NOT metabolized | Compound NOT metabolized | Compound NOT metabolized | Compound metabolized | Compound NOT metabolized | Compound NOT metabolized | Compound NOT metabolized | Compound metabolized | Compound NOT metabolized | Compound metabolized | Compound NOT metabolized | Compound NOT metabolized | Compound NOT metabolized | CNC(=C[N+](=O)[O-])NCCSCc1csc(CN(C)C)n1 [NIZATIDINE]
Compound metabolized | Compound metabolized | Compound metabolized | Compound metabolized | Compound metabolized | Compound metabolized | Compound metabolized | Compound metabolized | Compound metabolized | Compound metabolized | Compound metabolized | Compound NOT metabolized | Compound NOT metabolized | Compound metabolized | Compound metabolized | Compound NOT metabolized | Compound metabolized | Compound metabolized | Compound metabolized | Compound metabolized | COc1ccc2[nH]c([S+]([O-])Cc3ncc(C)c(OC)c3C)nc2c1 (stereo not given) [OMEPRAZOLE]
Compound metabolized | Compound metabolized | Compound metabolized | Compound metabolized | Compound metabolized | Compound metabolized | Compound metabolized | Compound metabolized | Compound metabolized | Compound metabolized | Compound metabolized | Compound metabolized | Compound metabolized | Compound NOT metabolized | Compound metabolized | Compound NOT metabolized | Compound metabolized | Compound metabolized | Compound metabolized | Compound metabolized | O=C(O)CCc1nc(-c2ccccc2)c(-c2ccccc2)o1 [OXAPROZIN]
Compound metabolized | Compound metabolized | Compound metabolized | Compound metabolized | Compound metabolized | Compound metabolized | Compound metabolized | Compound metabolized | Compound metabolized | Compound metabolized | Compound metabolized | Compound metabolized | Compound metabolized | Compound metabolized | Compound metabolized | Compound NOT metabolized | Compound metabolized | Compound NOT metabolized | Compound NOT metabolized | Compound metabolized | CC(C)(C)NC[C@H](O)COc1ccccc1C1CCCC1.CC(C)(C)NC[C@H](O)COc1ccccc1C1CCCC1.O=S(=O)(O)O [PENBUTOLOL SULFATE]

Reference: ChEMBL document CHEMBL5724914, “Linking interpersonal differences in gut microbiota composition and drug biotransformation activity” (2024)
